The test system of data set [1] is Huh-7 cells.
Data set [2] has as its system HUVEC cells.
The subject of data set [3] is HEK293T cells.
The subject of data set [4] is Kasumi-1 cells.

Ends that are not written are not given here.

For “RLALRLALRALRAALRLAGCYGRKKRRQRRR [RLAL-TAT-[barcode108]]”, in data set [1], the “change of nuclear accumulation after 24 hours of cell exposure” value is given as “time-dependent increase in nuclear accumulation” and the mean nuclear abundance is given as 196 millions of molecules/cell.
As for “KLALKLALKALKAALKLAGAYGRKKRRQRRRAFSVDAETLWR-NH2 [KLAL-TAT-[barcode82]]”, the values for the mean cytoplasmic abundance in data set [2], in data set [3] and in data set [4] were 0 millions of molecules/cell, 31 millions of molecules/cell and 15 millions of molecules/cell, respectively.

Values taken from article PMC11770985 (Journal of proteome research, 2024).
